Data taken from patent US10583206B2, “Radioactive probe for detecting hydrogen sulfide” (KYUNGPOOK NATIONAL UNIVERSITY INDUSTRY-ACADEMIC COOPERATION …, priority 2015, dated 2020).

Assays:
[1] = Test of hydrogen sulfide detection over time (^64CuS formation, radio-TLC); assay type: physicochemical; design: unit not given here; conditions: 100 μM NaHS, 37° C.
Method: To examine reactivity of the ^64Cu-labeled complex compound according to the present disclosure over time, the following experiment was performed.
A detailed experimental method is as follows.
About 45 μCi-50 μCi of ^64Cu-labeled complex compound (250 μL of triple distilled water) was mixed with 100 μM of NaHS solution ([…] of triple distilled water), and stirred at 37° C. for 15 minutes. Formation of copper sulfide (^64CuS) was quantified by using a radio-TLC scanner.

[2] = tested on: Paw inflammation model; assay type: in vivo, Balb/c or ICR mice
Method: (1) Paw Pain Inflammation Model
A small amount of CFA (complete Freund's adjuvant) or formalin was injected into only one paw (right) of the hind paws of Balb/c or ICR mice to establish inflammation models. 1 day after injection of the inflammation inducer, the mice were used in imaging or other in vivo experiments.
It is a known fact that inflamed sites show high concentrations of hydrogen sulfide.
Nuclear medicine imaging was measured by using an Inveon PET/CT system of Siemens Healthcare, and optical imaging was measured by using IVIS spectrum CT equipment. Cherenkov radiation emitted from ^64Cu was measured by using a highly sensitive CCD (charge-coupled device) camera.
Imaging was measured for 1 minute to 5 minutes, and a radiation dose was about 50 μCi to 2000 μCi, and photographs were variously taken as needed, such as immediately after first injection, at 1 hour, 4 hours, and 24 hours later.

[3] = Test of hydrogen sulfide detection sensitivity (% decomplexation with NaHS, radio-TLC); assay type: physicochemical; conditions: for % decomplexation: 37° C. for 15 minutes; for % decomplexation against 100 μM NaHS solution: Table 3
Method: To measure hydrogen sulfide detection sensitivity of the ^64Cu-labeled complex compound according to the present disclosure, the following experiment was performed.
About 45 μCi-55 μCi of ^64Cu-labeled complex compound (250 μL of triple distilled water) was mixed with various concentrations of NaHS solution (250 µL of triple distilled water), and stirred at 37° C. for 15 minutes (a total volume used in the reaction was equally 500 μL). After completion of the reaction, the resulting products were strongly stirred to mix appropriately.
Formation of copper sulfide (^64CuS) was confirmed by quantification of % decomplexation by using a radio-TLC scanner, and results are shown in the following Tables 2 and 3.

[4] = Hydrogen sulfide selectivity test: decomplexation by Cys; assay type: physicochemical; conditions: 100 μM or L-Cys (1 mM), 37° C. for 15 minutes
Method: (§1) In addition to hydrogen sulfide, many different anions, radicals, etc. exist in the body. Therefore, to examine selective reactivity of the ^64Cu-labeled complex compound according to the present disclosure for sulfide ions, the following experiment was performed.
(§2) About 45 μCi-55 μCi of the ^64Cu-labeled complex compound (250 μL of triple distilled water) was mixed with 100 μM of various anion solutions (250 μL of triple distilled water) including biothiol, and stirred at 37° C. for 15 minutes.
(§3) Formation of copper sulfide (^64CuS) was quantified by using a radio-TLC scanner.
(§4) Various biothiol or salt solutions were prepared by dissolving the compounds in triple distilled water.
(§5) In Table, concentrations of all biothiols and other competitive materials are 100 μM. Further, specific concentrations of biothiols, anions, and oxidants used in Table are as follows: [L-Cys (1 mM); L-Hcys (10 mM); GSH (10 mM); DL-dithiothretitol (DTT, 100 μM); L-ascorbic acid (L-AsA, 10 mM); 2-mercaptoethanol (2-ME, 10 mM); NaCl (10 mm); KI (1 mM); Na2S2O3 (1 mM); Na2S2O5 (1 mM); NaOAc (1 mM); H2O2 ([…]); NaClO4 (100 μM); NaHCO3 (100 μM); NaNO2 ([…]); NaN3 (100 μM); ATB 337 (100 μM); diallyl trisulphide (100 μM)].

[5] = Hydrogen sulfide selectivity test: decomplexation by H2O2; assay type: physicochemical; conditions: H2O2 (100 µM); 37° C. for 15 minutes
Method: as §1, §2, §3, §4, §5

[6] = Hydrogen sulfide selectivity test: decomplexation by DTT; assay type: physicochemical; conditions: DL-dithiothretitol (DTT, 100 μM); 37° C. for 15 minutes
Method: as §1, §2, §3, §4, §5

[7] = Hydrogen sulfide selectivity test: decomplexation by NaOAc; assay type: physicochemical; conditions: 100 μM or (1 mM), 37° C. for 15 minutes
Method: as §1, §2, §3, §4, §5

[8] = Hydrogen sulfide selectivity test: decomplexation by Na2S2O3; assay type: physicochemical; conditions: 100 μM or (1 mM), 37° C. for 15 minutes
Method: as §1, §2, §3, §4, §5

[9] = Hydrogen sulfide selectivity test: decomplexation by NaN3; assay type: physicochemical; conditions: NaN3 (100 μM); 37° C. for 15 minutes
Method: as §1, §2, §3, §4, §5

[10] = Hydrogen sulfide selectivity test: decomplexation by GSH; assay type: physicochemical; conditions: 100 μM or GSH (10 mM), 37° C. for 15 minutes
Method: as §1, §2, §3, §4, §5

[11] = Hydrogen sulfide selectivity test: decomplexation by L-AsA; assay type: physicochemical; conditions: L-ascorbic acid; 100 μM or (L-AsA, 10 mM); 37° C. for 15 minutes
Method: as §1, §2, §3, §4, §5

[12] = Hydrogen sulfide selectivity test: decomplexation by Hcys; assay type: physicochemical; conditions: 100 μM or L-Hcys (10 mM), 37° C. for 15 minutes
Method: as §1, §2, §3, §4, §5

[13] = Hydrogen sulfide selectivity test: decomplexation by NaClO4; assay type: physicochemical; conditions: NaClO4 (100 μM); 37° C. for 15 minutes
Method: as §1, §2, §3, §4, §5

[14] = Hydrogen sulfide selectivity test: decomplexation by NaNO2; assay type: physicochemical; conditions: NaNO2 (100 µM); 37° C. for 15 minutes
Method: as §1, §2, §3, §4, §5

[15] = Hydrogen sulfide selectivity test: decomplexation by ATB 337; assay type: physicochemical; conditions: ATB 337 (100 μM); 37° C. for 15 minutes
Method: as §1, §2, §3, §4, §5

[16] = Hydrogen sulfide selectivity test: decomplexation by Kl; assay type: physicochemical; conditions: 100 μM or KI (1 mM), 37° C. for 15 minutes
Method: as §1, §2, §3, §4, §5

[17] = Hydrogen sulfide selectivity test: decomplexation by Na2S2O5; assay type: physicochemical; conditions: 100 μM or (1 mM), 37° C. for 15 minutes
Method: as §1, §2, §3, §4, §5

[18] = Hydrogen sulfide selectivity test: decomplexation by NaCl; assay type: physicochemical; conditions: 100 μM or NaCl (10 mm), 37° C. for 15 minutes
Method: as §1, §2, §3, §4, §5

[19] = tested on: Myocardial infarction model; experiment: Imaging study in myocardial infarction model (PET); assay type: in vivo, Sprague-Dawley rats; conditions: PET imaging after injection
Excerpt: (2) Myocardial Infarction Model
A myocardial infarction model was established by using Sprague-Dawley rats (12-week-old or older, about 250 g). 2 days later after induction of myocardial infarction by occlusion of the coronary arteries in the heart, the rats were used in imaging tests. It is a known fact that myocardial infarction sites show high concentrations of hydrogen sulfide.
It is known that myocardial infarction sites show high concentrations of hydrogen sulfide. Thus, after induction of myocardial infarction by coronary artery occlusion in rats, 50 μCi-900 μCi of the ^64Cu-labeled complex compound was injected via the tails of the rats, and uptake in the myocardial infarction site was examined over time by PET imaging.
36 hours after establishment of the myocardial infarction model, 730 μCi of the radioisotope-labeled complex compound of the present disclosure was injected and nuclear medicine imaging was performed. 2 days later, […] of FDG was injected into the same rat, and then FDG-PET images were obtained. Results are shown in FIGS. 15 to 17 (in the nuclear medicine imaging, the upper image represents a transverse image, and the lower image represents a coronal image).

[20] = Hydrogen sulfide selectivity test: decomplexation by NaHCO3; assay type: physicochemical; conditions: NaHCO3 (100 μM); 37° C. for 15 minutes
Method: as §1, §2, §3, §4, §5

[21] = Hydrogen sulfide selectivity test: decomplexation by ME; assay type: physicochemical; conditions: 2-mercaptoethanol; 100 μM or (2-ME, 10 mM); 37° C. for 15 minutes
Method: as §1, §2, §3, §4, §5

[22] = Hydrogen sulfide selectivity test: decomplexation by DAT (diallyl trisulphide); assay type: physicochemical; conditions: DAT = diallyl trisulphide (100 μM); 37° C. for 15 minutes
Method: as §1, §2, §3, §4, §5

[64Cu+2].c1ccc2c(CN3CCNCCNCCNCC3)c3ccccc3cc2c1 [Example 2]
Formation of copper sulfide (^64CuS) over time ([1]; 10 sec): 21 | Formation of copper sulfide (^64CuS) over time ([1]; 30 sec): 22 | Formation of copper sulfide (^64CuS) over time ([1]; 60 sec): 33 | Formation of copper sulfide (^64CuS) over time ([1]; 5 min): 82 | Formation of copper sulfide (^64CuS) over time ([1]; 10 min): 100 | Formation of copper sulfide (^64CuS) over time ([1]; 15 min): 100 | selective uptake in inflamed sites ([2]; optical imaging and nuclear medicine imaging): selective uptake | % decomplexation ([3]; NaHS 0 μM): 0% | % decomplexation ([3]; NaHS 1 μM): 0% | % decomplexation ([3]; NaHS 10 μM): 0% | % decomplexation ([3]; NaHS 15 μM): 0% | % decomplexation ([3]; NaHS 20 μM): 15% | % decomplexation ([3]; NaHS 50 μM): 56% | % decomplexation ([3]; NaHS 100 μM): 100%

CC1CC[N]2C3CCCCC3[N]3C(C)CC[N]4C5CCCCC5[N]1[64Cu]423 (stereo not shown) [Example 9]
uptake in inflamed paw versus opposite paw ([2]; optical and nuclear medicine imaging performed 2 hours later): higher uptakes

C1C[N]2CC[N]3CC[N]4CC[N](C1)[64Cu]234 [Example 16, ^64Cu-labeled cyclam]
Decomplexation [%] [4]: 0.7 ± 0.2% | Decomplexation [%] [5]: 0.7 ± 0.2% | Decomplexation [%] [6]: 0.8 ± 0.0% | Decomplexation [%] [7]: 0.8 ± 0.0% | Decomplexation [%] [8]: 0.8 ± 0.1% | Decomplexation [%] [9]: 0.7 ± 0.1% | Decomplexation [%] [10]: 0.8 ± 0.2% | Decomplexation [%] [11]: 0.7 ± 0.2% | Decomplexation [%] [12]: 0.7 ± 0.0% | Formation of copper sulfide (^64CuS) over time ([1]; 10 sec): 0 | Formation of copper sulfide (^64CuS) over time ([1]; 30 sec): 0 | Formation of copper sulfide (^64CuS) over time ([1]; 60 sec): 0 | Formation of copper sulfide (^64CuS) over time ([1]; 5 min): 3 | Formation of copper sulfide (^64CuS) over time ([1]; 10 min): 5 | Formation of copper sulfide (^64CuS) over time ([1]; 15 min): 10 | Decomplexation [%] [13]: 0.6 ± 0.1% | Decomplexation [%] [14]: 0.5 ± 0.1% | Decomplexation [%] [15]: 0.6 ± 0.0% | Decomplexation [%] [16]: 0.7 ± 0.0% | Decomplexation [%] [17]: 0.5 ± 0.0% | Decomplexation [%] [18]: 0.7 ± 0.0% | uptake / visualisation of the myocardial infarction site [19]: no specific uptake was observed in the heart | difference between inflamed and normal paws ([2]; mouse, in vivo): no obvious difference in the inflamed and normal paws | uptake compared to injection of the same quantity of ^64Cu-labeled cyclen of Example 1 ([2]; mouse, in vivo): low uptake | Decomplexation [%] [20]: 0.5 ± 0.1% | % decomplexation ([3]; NaHS 0 μM): 0% | % decomplexation ([3]; NaHS 1 μM): 0% | % decomplexation ([3]; NaHS 10 μM): 0% | % decomplexation ([3]; NaHS 15 μM): 0% | % decomplexation ([3]; NaHS 20 μM): 0% | % decomplexation ([3]; NaHS 50 μM): 1.3% | % decomplexation ([3]; NaHS 100 μM): 10.5% | Decomplexation [%] [21]: 0.5 ± 0.6%

C1C[SH]2CC[SH]3CC[SH]4CC[N]1[64Cu]243 (stereo not shown) [Example 23]
Decomplexation [%] [4]: 0.5% | Decomplexation [%] [5]: 0.3% | Decomplexation [%] [6]: 0.4% | Decomplexation [%] [7]: 0.3% | Decomplexation [%] [8]: 0.2% | Decomplexation [%] [9]: 0.8% | Decomplexation [%] [10]: 0.7% | Decomplexation [%] [11]: 0.4% | Decomplexation [%] [12]: 0.4% | Decomplexation [%] [13]: 0.8% | Decomplexation [%] [14]: 0.6% | Decomplexation [%] [15]: 0.6% | Decomplexation [%] [16]: 0.2% | Decomplexation [%] [17]: 0.6% | Decomplexation [%] [18]: 0.5% | Decomplexation [%] [22]: 0.4% | Decomplexation [%] [20]: 0.1% | % decomplexation against 100 μM NaHS solution [3]: 78.3 ± 2.6% | % decomplexation ([3]; NaHS 0 μM): 0% | % decomplexation ([3]; NaHS 1 μM): 0% | % decomplexation ([3]; NaHS 10 μM): 0% | % decomplexation ([3]; NaHS 15 μM): 36.4% | % decomplexation ([3]; NaHS 20 μM): 49.4% | % decomplexation ([3]; NaHS 50 μM): 67.7% | % decomplexation ([3]; NaHS 100 μM): 78.2% | Decomplexation [%] [21]: 0.5%

CN1CCCNCCNCCNCC1.[64Cu+2] [Example 24]
% decomplexation against 100 μM NaHS solution [3]: 0%

C1CNCCN2CCCNCCN(C1)CCC2 [Example 25]
% decomplexation against 100 μM NaHS solution [3]: 0%

C/C(=N\O)[C@@H](C)NCC(C)(C)CN[C@H](C)/C(C)=N/O [Example 26]
% decomplexation against 100 μM NaHS solution [3]: 62.43 ± 0.87%

c1ccc(CNCc2ccccn2)nc1 [Example 33]
% decomplexation against 100 μM NaHS solution [3]: 26.6%

OC[C@H]1O[C@@H](O)[C@H]([18F])[C@@H](O)[C@@H]1O [FDG, reference compound]
uptake / visualisation of the myocardial infarction site [19]: uptake did not occur in the myocardial infarction site
